# Reference: article PMC8006935, “Study of Combinatorial Drug Synergy of Novel Acridone Derivatives With Temozolomide Using in-silico and in-vitro Methods in the Treatment of Drug-Resistant Glioma” (Frontiers in Oncology, 2021)
# Key:
# [1] = parameters: method as in PMID 21565270; details: cited from earlier work
# [2] = pKa by UV-Vis spectrophotometer; format: physicochemical
# Description: Characterization of acridone derivatives AC2, AC7, and AC26 were carried out by using all the chemicals of analytical grade. Hydrochloric acid and sodium hydroxide were procured from Sisco Research Lab Pvt. Ltd (Mumbai, India). Potassium dihydrogen orthophosphate, methanol and ortho-phosphoric acid (85% pure) was received from Loba Chemie Pvt. Ltd. (Mumbai, India). Sodium chloride was received from SD Fine-Chem Limited (Mumbai, India). Milli-pore water was used throughout the study. Chemical information like the molecular weight of compounds was determined by obtaining ESI-MS spectroscopy using methanol as solvent. pH calculated by using pH analyzer (Lab India) and PKa determined by using UV-Vis spectrophotometer (Shimadzu, Japan). Melting point was calculated by Digital Melting point apparatus (Veego India). Lipophilicity was determined by using software like Chem Draw 15 and ALGOPS 2.1 ([16]). In order to determine the Blood Brain Barrier (BBB) permeability of the compounds, we have used Online BBB Predictor (https://www.cbligand.org/BBB/predictor.php) using SVM Machine Learning algorithm and PubChem as the fingerprint ([17]).
# [3] = Sulforhodamine B assay, Vero control cells; format: cell-based; details: African green monkey, Vero cells (normal kidney epithelial cells), SRB, read-out: Vero cell Line CC50
# Description: (§1) In order to test the growth inhibition potential of the TMZ and Acridone derivatives on Glioma, the U-87 (Uppsala 87) Glioma cell lines and T-98 (Temozolomide resistant) Glioma cell lines were treated with Temozolomide (TMZ) and Acridone derivatives AC2, AC7, and AC26. The African Green Monkey Kidney Vero cell lines were used as control for the study. The Vero cell lines were obtained from the National Center for Cell Sciences (NCCS), Pune, while the U-87 and T-98 cell lines were carried in the lab of Dr. GJ Peters, Cancer Center Amsterdam (CCA), VU University Medical Center, Amsterdam, Netherlands. The Mycoplasma testing was done by using the Universal Mycoplasma Detection Kit (ATCC® 30-1012K™) every 6 months. The Vero cell lines have been used as control as they are normal kidney epithelial cells and are non-cancerous in nature. The Vero cell lines have been routinely used for testing cytotoxicity of small molecules by various researchers ([22], [23]). Also, in our previous study, Vero cell lines have been used for testing safety and efficacy of Acridone derivatives for Lung, Cervical, and Breast Cancer studies ([13]).
# (§2) Cell viability was found using the Sulforhodamine B (SRB) assay to measure the cellular protein content which provides better sensitivity in comparison to MTT assay ([24]). Moreover, as this method is dependent on the property of the SRB dye, it acts by binding to proteins under slightly acidic conditions and can be exposed to basic conditions for its extraction. The resulting amount of bound dye is then utilized as a proxy for cell mass ([25]). This cell mass can then be extrapolated to measure cell growth.
# Glioma cells were cultured in Gibco (RPMI 1640) complemented with 10% fetal calf serum (Gibco). The cultures were then treated with trypsin-EDTA in order to detach/separate the cells from their culture flasks. The quickly proliferating cells were harvested, counted and plated at suitable concentrations in 96-well microplates. These microplates were subsequently incubated for 24 h. After incubation, drug compounds were dissolved in the culture media and placed in 96 well plates in triplicates, which were again incubated at 37°C under 5% CO2 for 72 h. 72 h later, the plates were removed and the cells were treated with cold Trichloroacetic acid (TCA) to fix the cultures and. […] Thereafter, absorbance of the solution was measured at 540 nm utilizing a microplate reader. Absorbance readings (triplicate values) recorded were used to calculate percentage growth inhibition due to the effect of drugs using the following equations.
# % Cell growth = Absorbance sample/Absorbance of control or untreated × 100 […]
# The IC50 was calculated based on the log graph sheet which was developed in-house at the CCA, VU University Medical Center. […]
# [4] = system: U-87 (Uppsala 87) Glioma cell lines; assay: Sulforhodamine B assay, U-87 drug sensitive Glioma cells; format: cell-based
# Description: as §1, §2
# Glioma cells were cultured in Gibco (RPMI 1640) complemented with 10% fetal calf serum (Gibco). The cultures were then treated with trypsin-EDTA in order to detach/separate the cells from their culture flasks. The quickly proliferating cells were harvested, counted and plated at suitable concentrations in 96-well microplates. These microplates were subsequently incubated for 24 h. After incubation, drug compounds were dissolved in the culture media and placed in 96 well plates in triplicates, which were again incubated at 37°C under 5% CO2 for 72 h. 72 h later, the plates were removed and the cells were treated with cold Trichloroacetic acid (TCA) to fix the cultures and. 0.4% of SRB dissolved in 1% acetic acid was then added to the culture in order to stain the cells. Next, the bound stain was dissolved in 150 μl of 10 mM unbuffered Tris base left on a gyrator shaker. Thereafter, absorbance of the solution was measured at 540 nm utilizing a microplate reader. Absorbance readings (triplicate values) recorded were used to calculate percentage growth inhibition due to the effect of drugs using the following equations.
# % Cell growth = Absorbance sample/Absorbance of control or untreated × 100
# % Growth inhibition = 100 - % cell growth
# The IC50 was calculated based on the log graph sheet which was developed in-house at the CCA, VU University Medical Center.
# Selectivity Index (SI) is a ratio that measures the window between cytotoxicity and anticancer activity of the drugs ([26]). […] Here, IC50 is the inhibition concentration for inhibiting 50% of cancer cells and CC50 is cytotoxic concentration causing death of 50% viable cells in the host.
# [5] = Acute Oral Toxicity - Fixed Dose procedure; format: in vivo
# Description: Animal study was conducted for acridone derivatives AC2, AC7, and AC26 alone and in combination with Temozolomide for Acute Oral Toxicity - Fixed Dose procedure. The Institutional Animal Ethics Committee bearing CPCSEA/IAEC/P-52/2016 was approved for undertaking the study. Acute oral toxicity was conducted on female albino Wistar rats for 8–12 weeks and were maintained at 25 ± 2 °C in a conditioned room with 50–60% of humidity and free access to food and water was given. Rats were kept for fasting overnight (12 h) before dosing and weights were recorded periodically. Rats in two groups were given acridone derivatives alone at a dose of […], rats in two groups were given a combination of Temozolomide : acridone derivatives at dose of 10:1 mg/kg and 15:1.5 mg/kg body weight and one group was kept as control. Dose of Temozolomide was taken as per previously published article ([50]). Compounds alone and combination were suspended in 2.0% of Tween 80 in normal saline and control group was taken for vehicle only. After administering the compound, food was not provided for 3 h. All the rats were monitored periodically for 1 h upto 12 h on the 1st day and thereafter twice in a day for mortality, behavioral changes, signs and symptoms of toxicity for 14 days. Individual weights of rats were taken for all the 14 days and study was conducted twice for each dose.
smiles,measurement,setting,value
"O=C(NN=CC=Cc1ccccc1)c1cccc2c(=O)c3ccccc3[nH]c12 [AC2, 9-oxo-N'-(3-phenylallylidene)-9,10-dihydroacridine-4-carbohydrazide]",cytotoxicity in comparison to the other acridone derivatives,[1],100 times
same,pKa,[2],8.03
same,CC50 at 72 h,[3],56.2 µM
same,U-87/WT SI,[4]; SI = CC50 of Vero cell line /IC50 of Cancer cell line after 72 h,36.73
same,IC50,"[4]; U87WT, 72 h, SRB, Mean ± Standard Deviations in Table 4, read-out: U-87/WT IC50",1530 ± 850 nM
same,Body weight (g) Day 0,[5]; 300 mg/kg oral,185 ± 6 g
same,Body weight (g) Day 1,[5]; 300 mg/kg oral,186 ± 12 g
same,Body weight (g) Day 2,[5]; 300 mg/kg oral,189 ± 10 g
same,Body weight (g) Day 3,[5]; 300 mg/kg oral,191 ± 15 g
same,Body weight (g) Day 4,[5]; 300 mg/kg oral,192 ± 12 g
same,Body weight (g) Day 5,[5]; 300 mg/kg oral,193 ± 22 g
same,Body weight (g) Day 6,[5]; 300 mg/kg oral,195 ± 12 g
same,Body weight (g) Day 7,[5]; 300 mg/kg oral,196 ± 10 g
same,Body weight (g) Day 8,[5]; 300 mg/kg oral,194 ± 12 g
same,Body weight (g) Day 9,[5]; 300 mg/kg oral,195 ± 10 g
same,Body weight (g) Day 10,[5]; 300 mg/kg oral,198 ± 15 g
same,Body weight (g) Day 11,[5]; 300 mg/kg oral,199 ± 16 g
same,Body weight (g) Day 12,[5]; 300 mg/kg oral,201 ± 10 g
same,Body weight (g) Day 13,[5]; 300 mg/kg oral,203 ± 6 g
same,Body weight (g) Day 14,[5]; 300 mg/kg oral,205 ± 18 g
same,Body weight (g) Day 0,[5]; 2000 mg/kg oral,173 ± 8 g
same,Body weight (g) Day 1,[5]; 2000 mg/kg oral,175 ± 11 g
same,Body weight (g) Day 2,[5]; 2000 mg/kg oral,176 ± 8 g
same,Body weight (g) Day 3,[5]; 2000 mg/kg oral,178 ± 12 g
same,Body weight (g) Day 4,[5]; 2000 mg/kg oral,180 ± 14 g
same,Body weight (g) Day 5,[5]; 2000 mg/kg oral,183 ± 15 g
same,Body weight (g) Day 6,[5]; 2000 mg/kg oral,185 ± 12 g
same,Body weight (g) Day 7,[5]; 2000 mg/kg oral,188 ± 16 g
same,Body weight (g) Day 8,[5]; 2000 mg/kg oral,190 ± 12 g
same,Body weight (g) Day 9,[5]; 2000 mg/kg oral,192 ± 16 g
same,Body weight (g) Day 10,[5]; 2000 mg/kg oral,195 ± 12 g
same,Body weight (g) Day 11,[5]; 2000 mg/kg oral,197 ± 8 g
same,Body weight (g) Day 12,[5]; 2000 mg/kg oral,199 ± 12 g
same,Body weight (g) Day 13,[5]; 2000 mg/kg oral,202 ± 15 g
same,Body weight (g) Day 14,[5]; 2000 mg/kg oral,206 ± 7 g
same,clinical sign of toxicity,"[5]; oral, single dose, 14 days observation, female albino Wistar rats",No clinical sign of toxicity was observed
